Legend:
Test in all cases: KINOMEscan competition binding
Conditions in all cases: compound 10.0 µM
[1] = system: ABL1 (human), P00519 [Y253F]
ACVR1 (human) = ACVR1 (human) (UniProt Q04771)
ACVRL1 (human) = ACVRL1 (human) (UniProt P37023)
AKT1 (human) = AKT1 (human) (UniProt P31749)
AURKC (human) = AURKC (human) (UniProt Q9UQB9)
CAMK4 (human) = CAMK4 (human) (UniProt Q16566)
CAMKK1 (human) = CAMKK1 (human) (UniProt Q8N5S9)
CDK11B (human) = CDK11B (human) (UniProt P21127)
CDK4 CCND1 (human) = CDK4 CCND1 (human) (UniProt P11802+P24385)
CPK1 (P.falciparum) = system: CPK1 (P.falciparum)
CSNK1G3 (human) = CSNK1G3 (human) (UniProt Q9Y6M4)
DSTYK (human) = DSTYK (human) (UniProt Q6XUX3)
EPHA3 (human) = EPHA3 (human) (UniProt P29320)
EPHA4 (human) = EPHA4 (human) (UniProt P54764)
EPHA7 (human) = EPHA7 (human) (UniProt Q15375)
ERN1 (human) = ERN1 (human) (UniProt O75460)
FES (human) = FES (human) (UniProt P07332)
FLT1 (human) = FLT1 (human) (UniProt P17948)
IKBKE (human) = IKBKE (human) (UniProt Q14164)
IRAK1 (human) = IRAK1 (human) (UniProt P51617)
LCK (human) = LCK (human) (UniProt P06239)
MAP2K4 (human) = MAP2K4 (human) (UniProt P45985)
MAP3K12 (human) = MAP3K12 (human) (UniProt Q12852)
MAP3K13 (human) = MAP3K13 (human) (UniProt O43283)
MAP4K5 (human) = MAP4K5 (human) (UniProt Q9Y4K4)
MAPK8 (human) = MAPK8 (human) (UniProt P45983)
MATK (human) = MATK (human) (UniProt P42679)
MKNK2 (human) = MKNK2 (human) (UniProt Q9HBH9)
NEK1 (human) = NEK1 (human) (UniProt Q96PY6)
NEK11 (human) = NEK11 (human) (UniProt Q8NG66)
OXSR1 (human) = OXSR1 (human) (UniProt O95747)
PAK7 (human) = PAK7 (human) (UniProt Q9P286)
PDGFRB (human) = PDGFRB (human) (UniProt P09619)
PKN2 (human) = PKN2 (human) (UniProt Q16513)
RIPK1 (human) = RIPK1 (human) (UniProt Q13546)
RPS6KA6 KD2 (human) = RPS6KA6 KD2 (human) (UniProt Q9UK32)
SRMS (human) = SRMS (human) (UniProt Q9H3Y6)
SRPK2 (human) = SRPK2 (human) (UniProt P78362)
STK32C (human) = STK32C (human) (UniProt Q86UX6)
TNK2 (human) = TNK2 (human) (UniProt Q07912)

ACVRL1 (human), sequence (P37023 whole entry, looked up): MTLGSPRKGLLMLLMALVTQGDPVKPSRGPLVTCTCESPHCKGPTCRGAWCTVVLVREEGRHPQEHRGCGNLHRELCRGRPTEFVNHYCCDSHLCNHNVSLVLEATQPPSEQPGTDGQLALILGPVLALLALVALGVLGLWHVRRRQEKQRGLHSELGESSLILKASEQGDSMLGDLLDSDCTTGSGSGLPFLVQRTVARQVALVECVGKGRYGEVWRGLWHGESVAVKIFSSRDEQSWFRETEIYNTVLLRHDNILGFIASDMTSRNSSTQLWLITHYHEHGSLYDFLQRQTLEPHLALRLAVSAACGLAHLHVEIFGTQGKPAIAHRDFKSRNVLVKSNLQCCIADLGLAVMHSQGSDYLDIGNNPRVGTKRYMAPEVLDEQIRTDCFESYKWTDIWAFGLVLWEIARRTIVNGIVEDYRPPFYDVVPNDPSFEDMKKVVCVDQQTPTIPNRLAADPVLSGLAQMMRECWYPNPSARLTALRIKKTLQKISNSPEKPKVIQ
CSNK1G3 (human), sequence (Q9Y6M4 whole entry, looked up): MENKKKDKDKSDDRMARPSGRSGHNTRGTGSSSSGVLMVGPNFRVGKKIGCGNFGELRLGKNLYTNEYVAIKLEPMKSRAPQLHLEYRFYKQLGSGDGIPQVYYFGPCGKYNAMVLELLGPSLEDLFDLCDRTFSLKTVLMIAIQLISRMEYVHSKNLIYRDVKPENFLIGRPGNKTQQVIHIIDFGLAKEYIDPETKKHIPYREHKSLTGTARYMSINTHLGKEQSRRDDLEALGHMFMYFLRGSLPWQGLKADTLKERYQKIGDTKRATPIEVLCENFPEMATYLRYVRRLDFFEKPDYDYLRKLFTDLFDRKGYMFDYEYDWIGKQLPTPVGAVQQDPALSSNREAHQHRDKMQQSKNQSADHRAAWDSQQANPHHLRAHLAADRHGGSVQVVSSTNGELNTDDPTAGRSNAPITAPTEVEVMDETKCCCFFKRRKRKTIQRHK
EPHA4 (human), sequence (P54764 whole entry, looked up): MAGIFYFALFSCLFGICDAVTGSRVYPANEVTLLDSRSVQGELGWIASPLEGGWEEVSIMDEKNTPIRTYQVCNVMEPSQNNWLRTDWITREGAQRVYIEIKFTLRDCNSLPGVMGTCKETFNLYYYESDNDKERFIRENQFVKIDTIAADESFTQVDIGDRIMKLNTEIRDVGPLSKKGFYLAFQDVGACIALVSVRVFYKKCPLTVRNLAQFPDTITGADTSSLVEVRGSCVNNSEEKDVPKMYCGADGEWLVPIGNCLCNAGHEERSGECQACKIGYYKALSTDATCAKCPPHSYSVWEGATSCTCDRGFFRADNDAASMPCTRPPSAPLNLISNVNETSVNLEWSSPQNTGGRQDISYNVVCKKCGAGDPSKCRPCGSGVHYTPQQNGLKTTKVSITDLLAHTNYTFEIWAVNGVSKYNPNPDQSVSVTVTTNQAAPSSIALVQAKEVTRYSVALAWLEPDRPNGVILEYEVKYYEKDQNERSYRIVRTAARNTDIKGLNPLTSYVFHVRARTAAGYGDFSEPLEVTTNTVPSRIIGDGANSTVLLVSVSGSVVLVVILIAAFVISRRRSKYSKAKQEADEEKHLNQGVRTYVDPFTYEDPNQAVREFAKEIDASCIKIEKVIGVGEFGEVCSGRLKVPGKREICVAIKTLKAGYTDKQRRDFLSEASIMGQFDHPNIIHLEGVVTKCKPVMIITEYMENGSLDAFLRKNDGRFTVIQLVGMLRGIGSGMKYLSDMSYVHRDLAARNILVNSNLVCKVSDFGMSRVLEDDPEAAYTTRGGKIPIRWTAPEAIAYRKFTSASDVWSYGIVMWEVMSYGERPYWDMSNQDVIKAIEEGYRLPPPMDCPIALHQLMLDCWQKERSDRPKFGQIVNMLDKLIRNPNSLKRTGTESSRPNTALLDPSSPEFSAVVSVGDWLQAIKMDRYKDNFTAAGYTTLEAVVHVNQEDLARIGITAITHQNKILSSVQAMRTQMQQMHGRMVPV
MAP3K13 (human), sequence (O43283 whole entry, looked up): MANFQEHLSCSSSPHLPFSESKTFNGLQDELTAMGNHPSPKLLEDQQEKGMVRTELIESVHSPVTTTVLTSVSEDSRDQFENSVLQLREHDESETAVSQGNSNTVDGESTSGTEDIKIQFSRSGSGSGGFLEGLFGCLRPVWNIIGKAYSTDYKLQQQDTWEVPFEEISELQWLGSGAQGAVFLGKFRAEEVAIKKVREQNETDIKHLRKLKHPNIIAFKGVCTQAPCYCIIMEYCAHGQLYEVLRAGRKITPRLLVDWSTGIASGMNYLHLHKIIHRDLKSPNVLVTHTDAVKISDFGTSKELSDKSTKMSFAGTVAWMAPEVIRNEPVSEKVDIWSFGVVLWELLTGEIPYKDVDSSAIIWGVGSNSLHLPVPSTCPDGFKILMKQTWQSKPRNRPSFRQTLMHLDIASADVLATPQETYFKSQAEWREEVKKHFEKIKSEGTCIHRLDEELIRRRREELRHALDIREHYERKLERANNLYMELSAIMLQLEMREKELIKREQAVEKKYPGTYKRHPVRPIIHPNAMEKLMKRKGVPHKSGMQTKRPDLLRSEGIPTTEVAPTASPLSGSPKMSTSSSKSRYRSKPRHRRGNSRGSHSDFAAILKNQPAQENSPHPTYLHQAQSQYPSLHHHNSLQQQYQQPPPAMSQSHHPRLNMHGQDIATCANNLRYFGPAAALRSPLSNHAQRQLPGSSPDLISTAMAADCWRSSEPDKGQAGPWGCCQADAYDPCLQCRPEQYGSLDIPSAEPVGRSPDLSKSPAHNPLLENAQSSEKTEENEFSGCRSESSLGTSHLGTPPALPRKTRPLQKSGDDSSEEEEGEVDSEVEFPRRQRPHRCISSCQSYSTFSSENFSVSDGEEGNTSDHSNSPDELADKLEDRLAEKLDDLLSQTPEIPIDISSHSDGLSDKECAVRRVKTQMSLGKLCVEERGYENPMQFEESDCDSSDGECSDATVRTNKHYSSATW
MAP4K5 (human), sequence (Q9Y4K4 whole entry, looked up): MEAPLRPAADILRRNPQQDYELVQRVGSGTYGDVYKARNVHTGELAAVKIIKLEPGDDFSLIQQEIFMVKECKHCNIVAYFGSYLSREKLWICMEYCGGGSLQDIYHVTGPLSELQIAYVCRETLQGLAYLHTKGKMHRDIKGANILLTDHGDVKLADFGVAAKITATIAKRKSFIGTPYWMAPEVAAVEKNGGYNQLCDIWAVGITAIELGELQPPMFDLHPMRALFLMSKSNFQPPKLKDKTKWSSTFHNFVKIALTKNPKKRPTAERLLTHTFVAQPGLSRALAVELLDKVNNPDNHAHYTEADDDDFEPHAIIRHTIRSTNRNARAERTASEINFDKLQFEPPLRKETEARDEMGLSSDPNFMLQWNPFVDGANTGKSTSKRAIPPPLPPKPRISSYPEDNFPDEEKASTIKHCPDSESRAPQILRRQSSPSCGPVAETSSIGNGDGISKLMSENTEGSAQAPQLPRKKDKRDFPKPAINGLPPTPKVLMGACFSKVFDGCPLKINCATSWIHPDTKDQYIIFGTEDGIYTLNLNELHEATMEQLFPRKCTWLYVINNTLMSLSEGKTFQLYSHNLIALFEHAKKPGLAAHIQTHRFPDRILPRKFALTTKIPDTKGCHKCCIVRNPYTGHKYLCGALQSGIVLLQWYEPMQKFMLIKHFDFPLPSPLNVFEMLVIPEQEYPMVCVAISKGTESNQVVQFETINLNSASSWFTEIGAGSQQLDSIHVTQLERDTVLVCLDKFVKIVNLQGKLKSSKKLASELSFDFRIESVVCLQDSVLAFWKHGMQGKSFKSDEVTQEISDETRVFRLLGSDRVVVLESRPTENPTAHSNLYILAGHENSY
DSTYK (human), sequence (Q6XUX3 whole entry, looked up): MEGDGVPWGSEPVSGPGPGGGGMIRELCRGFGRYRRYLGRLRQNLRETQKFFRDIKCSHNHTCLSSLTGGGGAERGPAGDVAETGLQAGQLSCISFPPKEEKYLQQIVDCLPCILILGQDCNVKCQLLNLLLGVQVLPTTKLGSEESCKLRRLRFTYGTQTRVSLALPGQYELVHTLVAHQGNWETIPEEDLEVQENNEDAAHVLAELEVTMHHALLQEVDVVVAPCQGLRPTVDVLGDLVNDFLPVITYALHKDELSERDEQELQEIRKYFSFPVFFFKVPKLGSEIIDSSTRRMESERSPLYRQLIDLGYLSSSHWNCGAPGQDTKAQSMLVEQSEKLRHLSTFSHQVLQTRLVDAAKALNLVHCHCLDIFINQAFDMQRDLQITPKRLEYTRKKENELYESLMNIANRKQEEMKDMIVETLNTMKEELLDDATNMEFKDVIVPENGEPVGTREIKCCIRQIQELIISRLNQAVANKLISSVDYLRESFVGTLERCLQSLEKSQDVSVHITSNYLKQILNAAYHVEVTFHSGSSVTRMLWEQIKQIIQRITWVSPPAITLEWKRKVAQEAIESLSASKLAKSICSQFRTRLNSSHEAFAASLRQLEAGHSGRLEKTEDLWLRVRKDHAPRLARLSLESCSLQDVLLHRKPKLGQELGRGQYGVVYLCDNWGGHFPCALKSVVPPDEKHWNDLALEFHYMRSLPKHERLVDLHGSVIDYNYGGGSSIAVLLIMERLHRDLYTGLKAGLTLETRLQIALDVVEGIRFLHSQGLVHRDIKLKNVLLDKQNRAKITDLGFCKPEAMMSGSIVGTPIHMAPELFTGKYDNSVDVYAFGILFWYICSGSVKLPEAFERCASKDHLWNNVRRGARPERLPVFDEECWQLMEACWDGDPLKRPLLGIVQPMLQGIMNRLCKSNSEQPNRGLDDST
AURKC (human), sequence (Q9UQB9 whole entry, looked up): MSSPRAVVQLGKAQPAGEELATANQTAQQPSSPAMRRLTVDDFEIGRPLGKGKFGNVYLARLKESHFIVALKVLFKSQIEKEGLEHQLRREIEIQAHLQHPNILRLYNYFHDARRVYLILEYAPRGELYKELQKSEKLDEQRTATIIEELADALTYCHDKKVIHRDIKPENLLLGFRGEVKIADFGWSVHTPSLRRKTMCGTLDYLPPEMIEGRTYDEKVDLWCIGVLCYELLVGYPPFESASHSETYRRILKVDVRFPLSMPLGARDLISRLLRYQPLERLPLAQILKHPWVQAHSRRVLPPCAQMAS

Structure (SMILES) | kinase still bound, per cent of control [1] [%] | kinase still bound, per cent of control (ACVR1 (human)) [%] | kinase still bound, per cent of control (ACVRL1 (human)) [%] | kinase still bound, per cent of control (AKT1 (human)) [%] | kinase still bound, per cent of control (AURKC (human)) [%] | kinase still bound, per cent of control (CAMK4 (human)) [%] | kinase still bound, per cent of control (CAMKK1 (human)) [%] | kinase still bound, per cent of control (CDK11B (human)) [%] | kinase still bound, per cent of control (CDK4 CCND1 (human)) [%] | kinase still bound, per cent of control (CPK1 (P.falciparum)) [%] | kinase still bound, per cent of control (CSNK1G3 (human)) [%] | kinase still bound, per cent of control (DSTYK (human)) [%] | kinase still bound, per cent of control (EPHA3 (human)) [%] | kinase still bound, per cent of control (EPHA4 (human)) [%] | kinase still bound, per cent of control (EPHA7 (human)) [%] | kinase still bound, per cent of control (ERN1 (human)) [%] | kinase still bound, per cent of control (FES (human)) [%] | kinase still bound, per cent of control (FLT1 (human)) [%] | kinase still bound, per cent of control (IKBKE (human)) [%] | kinase still bound, per cent of control (IRAK1 (human)) [%] | other results
COc1ccc(N(C(=O)Oc2c(C)cccc2C)c2ccnc(Nc3ccc(N4CCN(C)CC4)cc3)n2)c(OC)c1 | 0.1 | 0 | 2.7 | 100 | 9.9 | 100 | 88 | 58 | 5.4 | 5 | 87 | 49 | 9.4 | 0 | 26 | 62 | 0.35 | 11 | 78 | 19 | kinase still bound, per cent of control (LCK (human)): 0.1%; kinase still bound, per cent of control (MAP2K4 (human)): 100%; kinase still bound, per cent of control (MAP3K12 (human)): 73%; kinase still bound, per cent of control (MAP3K13 (human)): 70%; kinase still bound, per cent of control (MAP4K5 (human)): 0.7%; kinase still bound, per cent of control (MAPK8 (human)): 64%; kinase still bound, per cent of control (MATK (human)): 67%; kinase still bound, per cent of control (MKNK2 (human)): 90%; kinase still bound, per cent of control (NEK1 (human)): 76%; kinase still bound, per cent of control (NEK11 (human)): 100%; kinase still bound, per cent of control (OXSR1 (human)): 93%; kinase still bound, per cent of control (PAK7 (human)): 82%; kinase still bound, per cent of control (PDGFRB (human)): 0%; kinase still bound, per cent of control (PKN2 (human)): 19%; kinase still bound, per cent of control (RIPK1 (human)): 63%; kinase still bound, per cent of control (RPS6KA6 KD2 (human)): 67%; kinase still bound, per cent of control (SRMS (human)): 8.6%; kinase still bound, per cent of control (SRPK2 (human)): 42%; kinase still bound, per cent of control (STK32C (human)): 19%; kinase still bound, per cent of control (TNK2 (human)): 0%
CN(C)C/C=C/C(=O)Nc1ccc(C(=O)Nc2cccc(Nc3nccc(-c4cccnc4)n3)c2)cc1 | 40 | 53 | 97 | 100 | 5.5 | 100 | 52 | 91 | 100 | 100 | 100 | 100 | 73 | 100 | 100 | 70 | 99 | 46 | 76 | 0.9 | kinase still bound, per cent of control (LCK (human)): 100%; kinase still bound, per cent of control (MAP2K4 (human)): 9.8%; kinase still bound, per cent of control (MAP3K12 (human)): 74%; kinase still bound, per cent of control (MAP3K13 (human)): 100%; kinase still bound, per cent of control (MAP4K5 (human)): 59%; kinase still bound, per cent of control (MAPK8 (human)): 1.2%; kinase still bound, per cent of control (MATK (human)): 91%; kinase still bound, per cent of control (MKNK2 (human)): 7.3%; kinase still bound, per cent of control (NEK1 (human)): 63%; kinase still bound, per cent of control (NEK11 (human)): 100%; kinase still bound, per cent of control (OXSR1 (human)): 100%; kinase still bound, per cent of control (PAK7 (human)): 52%; kinase still bound, per cent of control (PDGFRB (human)): 3.6%; kinase still bound, per cent of control (PKN2 (human)): 79%; kinase still bound, per cent of control (RIPK1 (human)): 34%; kinase still bound, per cent of control (RPS6KA6 KD2 (human)): 97%; kinase still bound, per cent of control (SRMS (human)): 85%; kinase still bound, per cent of control (SRPK2 (human)): 100%; kinase still bound, per cent of control (STK32C (human)): 100%; kinase still bound, per cent of control (TNK2 (human)): 100%

Reference: the kinase profiling compilation of Christmann-Franck et al. (2016)
